Data published in US20240285670A1, “THERAPEUTIC TREATMENT OF TUMORS BY BLOCKING THE HEME SYNTHESIS-EXPORT AXIS” (Università degli Studi di Torino, priority 2021, published 2024).

Columns and labels:
SKCO1 cells = assay: Activity of mitochondrial ETC complexes I-IV in SKCO1 cells; type: cell-based, human; conditions: FLVCR1a-silenced vs scramble shRNA SKCO1 cells
Source text: (A, C, E) Activities of the mitochondrial electron transport chain complexes I-IV. FLVCR1a-silenced Caco2 (A), SKCO1 (C) or C80 cells (E) are compared to cells expressing a scramble shRNA. Results were expressed as nmol NAD^+/min/mg mitochondrial protein for complex I, nmol reduced cytochrome c/min/mg mitochondrial protein for complexes II-III, nmol oxidized cytochrome c/min/mg mitochondrial protein for complex IV. Data represent mean±SEM, n=3. For statistical analyses, an unpaired Student's t-test was used; *=p<0.05, **=p<0.01. (B, D, F) Mitochondrial ATP levels measured by a bioluminescent assay kit. FLVCR1a-silenced Caco2 (B), SKCO1 (D) or C80 cells (F) are compared to cells expressing a scramble shRNA. Results are expressed as nmol/mg mitochondrial proteins. Data represent mean±SEM, n=3. […] Results were expressed as nmol NAD^+/min/mg mitochondrial protein for complex I, nmol reduced cytochrome c/min/mg mitochondrial protein for complexes II-III, nmol oxidized cytochrome c/min/mg mitochondrial protein for complex IV. […] (H) Mitochondrial ATP levels measured by a bioluminescent assay kit in Caco2 cells overexpressing FLVCR1a (indicated as FLVCR1a+) compared to cells stably transduced with an empty vector. Results are expressed as nmol/mg mitochondrial proteins. […]
The activity of mitochondria respiration complexes was measured according to (Wibom et al., 2002).

Caco2 cells = assay: Proliferation of Caco2 cells (crystal violet staining, cell viability); type: cell-based, human; conditions: FLVCR1a-silenced vs scramble shRNA Caco2 cells
Source text: (A) Proliferation of Caco2 cells assessed by crystal violet staining at the indicated days; bar=1000 μm. […] Staining quantification is reported in the bar graph as percentage of crystal violet stained area. Data represent mean±SEM, n=4. For statistical analyses, a two-way analysis of variance was used, followed by the Bonferroni correction for multiple group comparisons; *=p<0.05, ***=p<0.001. (B) Caco2 cells viability the day of plating (day 0) and three days after plaiting (day 3). The measure is considered a readout of cell proliferation. […] Data represent mean±SEM, n=3 wells. For statistical analyses, a two-way analysis of variance was used, followed by the Bonferroni correction for multiple group comparisons; *=p<0.05, **=p<0.01. (C, D, E) Representative flow cytometric analyses of apoptosis in synchronized Caco2 (C), SKCO1 (D) and C80 (E) cells. […]
To assess cell viability, the CellTiter-Fluor Cell Viability Assay (Promega, Madison, WI USA, catalog n°G6080) was used. […] The detection of cell viability at different consecutive time points was regarded as a readout of cell proliferation.
For crystal violet staining, 1*10^4 Caco2 cells were seeded in 6-well plates. […] Stained area was assessed by analyses of four representative photos per day for each triplicate using Fiji open source software (Schindelin et al., 2012) (http://fiji.sc/ RRID:SCR_002285).

“FLVCR1a shRNA: shRNA specifically down-regulating FLVCR1a without targeting FLVCR1b; pLKO.1 lentiviral clone TRCN0000059599, antisense SEQ ID No.: 2 (antisense TTGCTAATGATGCTGTACTGG; sense CCAGTACAGCATCATTAGCAA)” was tested, and the ETC complexes activity (SKCO1 cells) was “increased ETC complexes activity” and the cell proliferation (Caco2 cells) was “proliferated more slowly”.
